Test results: patent publication US20120264928A1, “THERAPEUTIC PHARMACEUTICAL AGENT FOR DISEASES ASSOCIATED WITH DECREASE IN FUNCTION OF GNE PROTEIN, FOOD COMPOSITION, AND FOOD ADDITIVE” (JAPAN HEALTH SCIENCES FOUNDATION, priority 2009, published 2012)

Key:
[1] = administration of free N-acetylneuraminic acid; cited from earlier work
[2] = test system: primary cultured cells of myotubes derived from the DMRV model mice; experiment: Amount of NeuAc by HPLC in myotubes from DMRV model mice; assay type: cell-based; settings: 10 mM ManNAc, three days; compared with control group (10 mM Glc)
Description: The skeletal muscle tissues collected from the DMRV human patients or the model mice were lightly washed with PBS or Hank's balanced saline and were treated with 0.25% trypsin for 5 minutes. The tissues were finely cut into several millimeters with ophthalmic scissors, were digested with 0.4% collagenase II/0.25% trypsin at 37° C. for 30 minutes, and were left still to collect supernatant. The precipitate was again treated with the enzyme liquid. After being left still, the precipitate was well suspended in a DMEM-Ham's F-12 culture medium. The tissue suspension was passed through a nylon mesh to remove the tissues. The washings and the supernatant were centrifuged to collect cells. […]
In the case that the sample was cultured cells, the cells were washed with PBS three times, and 400 p. […] The fluorescent derivative thus prepared was analyzed with HPLC (JASCO Corp.) using 0.05 to 5 nmol/μl Neu5Ac and Neu5Gc standards. The amount of protein from the tissue was measured with a Bio-Rad Protein Assay kit (Bio-Rad Laboratories).
ManNAc or Ac5GlcNAcol was added to the culture media of primary cultured cells of myotubes derived from the DMRV model mice such that the final concentration of ManNAc was 10 mM and the final concentration of Ac5GlcNAcol was […]. […] The amount of NeuAc in the cultured cells was measured by the HPLC method described above (N=3).

[3] = test system: primary cultured cells of myotubes; experiment: Cytotoxicity of reagent in myotube culture; assay type: cell-based; settings: high concentration

CC(=O)N[C@H]1[C@H]([C@H](O)[C@H](O)CO)OC(O)(C(=O)O)C[C@@H]1O (stereo partly drawn) [NeuAc, N-acetylneuraminic acid]
effect of increasing N-acetylneuraminic acid in ganglioside [1]: no particular effect

CC(=O)N[C@@H]1C(O)O[C@H](CO)[C@@H](O)[C@@H]1O (stereo partly drawn) [ManNAc, N-acetylmannosamine, reference compound]
amount of NeuAc in the myotubes [2]: increased the amount of NeuAc

CC(=O)N[C@@H]1C(OC(C)=O)O[C@H](COC(C)=O)[C@@H](OC(C)=O)[C@@H]1OC(C)=O (stereo partly drawn) [Ac4ManNAc, Tetra-O-acetyl-N-acetylmannosamine]
cytotoxicity [3]: has cytotoxicity when the Ac4ManNAc concentration is high
